# Experimental data reported in paper PMC2577155 (The Journal of neuroscience : the official journal of the …, 2008).
# Positions count from the first letter of the chain named. Like-named read-outs stand apart in the source and are kept apart here.
# Legend:
# [1] = tested on: Sprague-Dawley rats; experiment: Catalepsy test; format: in vivo, rat; settings: sc, up to 4 h; TBPB 30-100 mg/kg
# [2] = target: T1, rM1 Y381A (Rattus norvegicus, UniProt P08482, Y381A); settings: ref Sur et al., 2003; cited from earlier work
# T1 sequence (P08482 1-460 Y381A): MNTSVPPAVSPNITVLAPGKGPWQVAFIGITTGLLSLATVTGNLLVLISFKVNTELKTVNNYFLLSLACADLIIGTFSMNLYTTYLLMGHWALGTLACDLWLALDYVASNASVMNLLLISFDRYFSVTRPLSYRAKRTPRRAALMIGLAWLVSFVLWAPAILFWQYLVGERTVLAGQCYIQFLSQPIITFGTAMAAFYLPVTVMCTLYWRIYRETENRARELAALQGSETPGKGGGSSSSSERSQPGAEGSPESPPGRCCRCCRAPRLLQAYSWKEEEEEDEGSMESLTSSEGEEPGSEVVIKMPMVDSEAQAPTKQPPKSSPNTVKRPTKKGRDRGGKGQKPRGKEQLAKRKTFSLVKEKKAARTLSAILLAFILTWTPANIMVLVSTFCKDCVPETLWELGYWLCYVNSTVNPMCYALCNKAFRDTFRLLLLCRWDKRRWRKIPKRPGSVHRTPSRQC
# [3] = tested on: Fos-like immunoreactivity; experiment: Fos immunohistochemistry in rat forebrain; format: in vivo; settings: 100 mg/kg sc, two hours after treatment
# [4] = target: hM3 (Homo sapiens, UniProt P20309); experiment: Calcium mobilization assay, CHO cells expressing hM3; format: cell-based; settings: M3, concentrations up to 10μM
# Chain of hM3 (P20309 whole entry): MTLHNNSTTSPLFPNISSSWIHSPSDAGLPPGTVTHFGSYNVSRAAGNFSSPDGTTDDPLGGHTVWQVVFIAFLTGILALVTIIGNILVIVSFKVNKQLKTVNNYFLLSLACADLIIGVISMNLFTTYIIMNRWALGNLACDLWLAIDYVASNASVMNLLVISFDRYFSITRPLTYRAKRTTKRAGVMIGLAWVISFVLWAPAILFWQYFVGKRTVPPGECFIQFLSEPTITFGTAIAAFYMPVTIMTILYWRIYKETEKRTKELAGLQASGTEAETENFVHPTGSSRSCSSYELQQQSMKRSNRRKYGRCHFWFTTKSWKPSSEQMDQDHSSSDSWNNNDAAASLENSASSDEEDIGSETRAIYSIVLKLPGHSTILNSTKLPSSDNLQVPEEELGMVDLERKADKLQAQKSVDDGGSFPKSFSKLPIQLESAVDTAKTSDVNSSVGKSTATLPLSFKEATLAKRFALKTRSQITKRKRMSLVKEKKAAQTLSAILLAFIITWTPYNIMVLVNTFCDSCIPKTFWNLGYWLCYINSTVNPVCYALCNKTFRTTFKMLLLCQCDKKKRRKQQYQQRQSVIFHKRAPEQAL
# [5] = tested on: Sprague-Dawley rats; experiment: Amphetamine-induced hyperlocomotion; format: in vivo, rat; settings: significant after 10, 30 and 56.6 mg/kg sc; amphetamine 1 mg/kg sc
# [6] = tested on: rats; experiment: Modified Irwin neurological test battery; format: in vivo, rat; settings: 100 mg/kg
# [7] = tested on: Sprague-Dawley rats; experiment: Locomotor activity when administered alone; format: in vivo, rat; settings: 30-100 mg/kg sc
# [8] = target: D2 receptors (Homo sapiens, UniProt P14416); experiment: D2 receptor affinity, NIMH Psychoactive Drug Screening Program; format: binding; settings: D2, PDSP accession number 3156
# Chain of D2 receptors (P14416 whole entry): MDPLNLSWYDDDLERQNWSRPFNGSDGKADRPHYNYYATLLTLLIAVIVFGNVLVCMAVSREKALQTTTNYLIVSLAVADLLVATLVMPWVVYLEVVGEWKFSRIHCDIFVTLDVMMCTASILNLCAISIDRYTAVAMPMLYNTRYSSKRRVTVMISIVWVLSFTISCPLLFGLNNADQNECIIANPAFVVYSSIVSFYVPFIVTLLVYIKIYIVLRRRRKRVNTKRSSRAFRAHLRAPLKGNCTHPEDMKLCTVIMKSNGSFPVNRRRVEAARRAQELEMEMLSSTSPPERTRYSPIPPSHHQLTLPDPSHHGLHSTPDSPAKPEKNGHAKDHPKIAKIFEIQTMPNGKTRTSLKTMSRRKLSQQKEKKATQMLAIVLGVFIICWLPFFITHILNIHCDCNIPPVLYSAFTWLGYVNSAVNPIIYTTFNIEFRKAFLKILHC
# [9] = target: T2, rM1 (Rattus norvegicus, UniProt P08482); settings: wt rM1
# T2 sequence (P08482 1-460): T1 sequence (P08482 1-460 Y381A) with A381Y
# [10] = target: T3, hM5 (Homo sapiens, UniProt P08912); experiment: Calcium mobilization assay, CHO cells expressing hM5; format: cell-based; settings: M5, concentrations up to 10μM
# T3 sequence (P08912 1-532): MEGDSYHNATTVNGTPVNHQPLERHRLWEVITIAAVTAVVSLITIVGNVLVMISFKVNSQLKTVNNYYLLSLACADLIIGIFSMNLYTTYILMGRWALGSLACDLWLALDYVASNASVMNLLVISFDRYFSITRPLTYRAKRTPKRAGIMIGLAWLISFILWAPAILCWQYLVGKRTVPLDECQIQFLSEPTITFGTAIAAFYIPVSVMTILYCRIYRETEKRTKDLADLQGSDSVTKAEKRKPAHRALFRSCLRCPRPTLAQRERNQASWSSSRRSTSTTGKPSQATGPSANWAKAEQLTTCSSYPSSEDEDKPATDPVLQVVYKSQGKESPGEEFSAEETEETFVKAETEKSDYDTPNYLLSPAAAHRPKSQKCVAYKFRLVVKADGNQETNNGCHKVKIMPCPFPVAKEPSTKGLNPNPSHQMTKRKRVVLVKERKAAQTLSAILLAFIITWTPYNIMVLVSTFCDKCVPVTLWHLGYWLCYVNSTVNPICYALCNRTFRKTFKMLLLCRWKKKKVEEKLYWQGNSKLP
# [11] = tested on: amyloid precursor protein (APP) processing; format: cell-based; settings: eight hours
# [12] = target: T4, hM2 (Homo sapiens, UniProt P08172); experiment: Calcium mobilization assay, CHO cells expressing hM2-Gqi5; format: cell-based; settings: M2, concentrations up to 10μM
# T4 sequence (P08172 1-466): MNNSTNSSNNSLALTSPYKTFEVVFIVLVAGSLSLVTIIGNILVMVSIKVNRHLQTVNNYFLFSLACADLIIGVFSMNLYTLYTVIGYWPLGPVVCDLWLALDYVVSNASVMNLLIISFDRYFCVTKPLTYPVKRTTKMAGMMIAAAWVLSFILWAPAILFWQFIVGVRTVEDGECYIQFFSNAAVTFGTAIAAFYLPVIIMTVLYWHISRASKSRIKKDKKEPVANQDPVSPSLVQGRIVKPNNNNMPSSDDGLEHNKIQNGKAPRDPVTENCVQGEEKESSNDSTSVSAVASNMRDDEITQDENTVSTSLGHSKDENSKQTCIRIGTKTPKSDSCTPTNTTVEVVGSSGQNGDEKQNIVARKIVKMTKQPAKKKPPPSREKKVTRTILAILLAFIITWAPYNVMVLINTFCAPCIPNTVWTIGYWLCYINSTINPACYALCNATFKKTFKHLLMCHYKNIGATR
# [13] = target: T2, rM1; settings: atropine 1-10 nM (CCh) or 0.3-3.0 nM (TBPB)
# [14] = target: T5, rM4 (Rattus norvegicus, UniProt P08485); experiment: Calcium mobilization assay, CHO-K1 cells expressing rM4-Gqi5; format: cell-based; settings: M4, concentrations up to 10μM
# T5 sequence (P08485 1-478): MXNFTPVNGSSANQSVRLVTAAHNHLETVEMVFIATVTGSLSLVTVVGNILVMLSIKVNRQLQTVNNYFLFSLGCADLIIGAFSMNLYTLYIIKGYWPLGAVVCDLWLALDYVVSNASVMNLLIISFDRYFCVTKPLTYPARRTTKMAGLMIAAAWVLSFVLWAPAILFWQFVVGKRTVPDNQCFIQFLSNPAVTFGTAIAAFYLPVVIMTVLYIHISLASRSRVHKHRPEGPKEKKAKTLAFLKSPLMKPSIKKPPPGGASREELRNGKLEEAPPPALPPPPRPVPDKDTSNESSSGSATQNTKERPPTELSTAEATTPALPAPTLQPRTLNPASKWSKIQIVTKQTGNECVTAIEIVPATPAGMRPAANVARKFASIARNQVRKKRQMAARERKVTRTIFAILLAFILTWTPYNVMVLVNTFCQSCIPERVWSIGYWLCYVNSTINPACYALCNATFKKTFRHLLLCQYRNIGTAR
# [15] = tested on: Aβ40; format: cell-based; settings: conditioned media, ELISA
# [16] = tested on: Sprague-Dawley rats; settings: ref Shannon et al., 2000; cited from earlier work
compound,measurement,setting,value
"O=C(CCCN1CCC(O)(c2ccc(Cl)cc2)CC1)c1ccc(F)cc1 [Haloperidol, haloperidol]",catalepsy,[1],dose-and time-related increases in catalepsy
Clc1ccc2c(c1)N=C(N1CCNCC1)c1ccccc1N2 [N-desmethylclozapine],activation of the M1 (Y381A) mutant,[2],fully activates
CN1CCN(C2=Nc3cc(Cl)ccc3Nc3ccccc32)CC1 [clozapine],catalepsy,[1],failed to produce catalepsy
Cc1ccccc1CN1CCC(N2CCC(n3c(=O)[nH]c4ccccc43)CC2)CC1 [TBPB],number of Fos-like immunoreactive neurons,[3]; DStr lateral,2.3 ± 1.3 per mm^2
same,number of Fos-like immunoreactive neurons,[3]; DStr medial,4.2 ± 1.2 per mm^2
same,number of Fos-like immunoreactive neurons,[3]; NAS shell,72.2 ± 12.6 per mm^2
same,number of Fos-like immunoreactive neurons,[3]; PFC,326.3 ± 57.1 per mm^2
same,agonist activity,[4],no agonist activity
same,effect on amphetamine-induced hyperlocomotion,[5],"robust, dose-related inhibition"
same,core body temperature,[6],slight decrease
same,effect on general locomotor output when administered alone,[7],no effect
same,Ki,[8],1400 nM
same,response as % of the maximal response to CCh,[9],77.3±3.4%
same,agonist activity,[10],no agonist activity
same,increase in shedding of APPsα compared to vehicle-treated cells,[11]; 1 μM,58%
same,production of CTFα,[11]; cell lysates,increased
same,catalepsy,[1],did not induce catalepsy
same,agonist activity,[12],no agonist activity
same,interaction of the agonist with the orthosteric antagonist atropine,[13],noncompetitive
same,agonist activity,[14],no agonist activity
same,"Aβ40 levels, % of the vehicle control",[15],61%
CCCCCCOc1nsnc1C1=CCCN(C)C1 [xanomeline],catalepsy,[16],lack of catalepsy
